Key:
P. acnes NCTC 737 [1] = assay: Disc diffusion assay (DDA), also supplemented; details: for DDA + salt & lipid: Example 8, single compound, salt and 1% (v/v) triolein;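 for all read-outs here: paper disc carrying compound placed on inoculated Wilkins-Chalgren Anaerobe agar pH 6.0, with lipid or NaCl supplement where listed, anaerobic 37 °C for 72 h, inhibition zone diameter read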
P. acnes NCTC 737 [2] = assay: Synergy disc diffusion assay (SDDA), also supplemented; details: for SL SDDA area increase / SL SDDA increase / SL SDDA with CSL / SL SDDA with CSPH: salt and lipid (1% (v/v) triolein); for SDDA area increase / SDDA increase: unsupplemented
S. aureus ATCC 29213 [3] = assay: Disc diffusion assay (DDA), also supplemented; details: Example 9; single compound; salt and serum
Procedure: The staphylococci were cultured and maintained on Mueller-Hinton Medium (agar and broth) at pH 7.2; cultures were incubated aerobically at 37° C. for 19-20 hours.
(d) Disc Diffusion Assay (DDA)
A sterile paper disc was impregnated with a sample of the test compound in a suitable solvent and 30 minutes allowed for the solvents to evaporate (where possible). The disc was then placed on an agar plate onto which the test micro-organism had been inoculated. The plate was then incubated under the conditions described above, following which it was examined visually for signs of bacterial growth. […] The diameter of this zone of “inhibition” was measured using a ProtoCOL™ automated zone sizer (Synbiosis, Cambridge, UK).
(f) Supplemented Disc Diffusion Assays
(§1) For assays using S. aureus ATCC 29213 the supplements used were sodium chloride (100 mM), lipid (Tween™ 80 at 1% v/v) and horse serum (5% v/v).

S. aureus ATCC 29213 [4] = assay: Synergy disc diffusion assay (SDDA), also supplemented; details: for SS SDDA area increase / SS SDDA increase / SS SDDA with CSL / SS SDDA with CSPH: salt and serum supplements; for SDDA area increase / SDDA increase: unsupplemented;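 for all read-outs here: disc diffusion on Mueller-Hinton agar at pH 7.2, aerobic incubation at 37 °C lasting 19-20 h, two compounds assessed jointly for combined antimicrobial effect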
Procedure: (e) Synergy Disc Diffusion Assay (SDDA)
This is a variation on the DDA method, in which two compounds are tested together for their combined antimicrobial activity.
Two test compounds A and B were placed on a single paper disc and the above described DDA procedure repeated.
(f) Supplemented Disc Diffusion Assays
as §1

## CC(C)(C)C1=CC(=O)C=CC1=O
P. acnes NCTC 737 [1]
  DDA + salt & lipid: 45.13 (±1.45) mm
P. acnes NCTC 737 [2]; quinone + CSL
  SL SDDA area increase: 56.24%
  SL SDDA increase: 11.28 mm
  SL SDDA with CSL: 56.41 (±2.58) mm
  SDDA area increase: 63.59%
  SDDA increase: 11.39 mm
P. acnes NCTC 737 [2]; quinone + CSPH
  SL SDDA area increase: 10.60%
  SL SDDA increase: 2.56 mm
  SL SDDA with CSPH: 52.10 (±2.56) mm
  SDDA area increase: 61.51%
  SDDA increase: 11.39 mm

## CC1=CC(=O)C=CC1=O [2-methyl-p-benzoquinone]
P. acnes NCTC 737 [1]
  DDA: 33.74 (±1.52) mm
  DDA + salt & lipid: 35.18 (±1.24) mm
P. acnes NCTC 737 [2]
  SDDA with CSL: 49.64 (±0.99) mm
  SDDA with CSPH: 49.54 (±0.81) mm
P. acnes NCTC 737 [2]; quinone + CSL
  SL SDDA area increase: 37.19%
  SL SDDA increase: 7.29 mm
  SL SDDA with CSL: 49.85 (±3.20) mm
  SDDA area increase: 47.88%
  SDDA increase: 8.82 mm
P. acnes NCTC 737 [2]; quinone + CSPH
  SL SDDA area increase: 18.59%
  SL SDDA increase: 4.41 mm
  SL SDDA with CSPH: 53.95 (±1.16) mm
  SDDA area increase: 38.80%
  SDDA increase: 7.49 mm

## CCc1cc(O)ccc1O [2-ethyl-p-hydroquinone]
P. acnes NCTC 737 [1]
  DDA + salt & lipid: 33.74 (±1.69) mm
S. aureus ATCC 29213 [3]
  DDA + salt & serum: 25.26 (±1.29) mm
P. acnes NCTC 737 [2]; quinone + CSL
  SL SDDA area increase: 31.58%
  SL SDDA increase: 6.26 mm
  SL SDDA with CSL: 48.82 (±0.47) mm
  SDDA area increase: 33.02%
  SDDA increase: 6.26 mm
P. acnes NCTC 737 [2]; quinone + CSPH
  SL SDDA area increase: 11.07%
  SL SDDA increase: 2.67 mm
  SL SDDA with CSPH: 52.21 (±0.18) mm
  SDDA area increase: 44.00%
  SDDA increase: 8.41 mm
S. aureus ATCC 29213 [4]; quinone + CSL
  SS SDDA area increase: 41.05%
  SS SDDA increase: 4.74 mm
  SS SDDA with CSL: 30.00 (±2.47) mm
  SDDA area increase: 151.18%
  SDDA increase: 14.23 mm
S. aureus ATCC 29213 [4]; quinone + CSPH
  SS SDDA area increase: 68.40%
  SS SDDA increase: 7.52 mm
  SS SDDA with CSPH: 32.78 (±0.31) mm
  SDDA area increase: 157.87%
  SDDA increase: 14.74 mm

## O=C1C=CC(=O)C(Cl)=C1 [2-chloro-1,4-benzoquinone]
P. acnes NCTC 737 [1]
  DDA: 22.15 (±0.53) mm
  DDA + salt & lipid: 24.31 (±0.81) mm
P. acnes NCTC 737 [2]
  SDDA with CSL: 45.85 (±0.31) mm
  SDDA with CSPH: 47.28 (±1.39) mm
P. acnes NCTC 737 [2]; quinone + CSL
  SL SDDA area increase: 31.58%
  SL SDDA increase: 6.26 mm
  SL SDDA with CSL: 48.82 (±0.47) mm
  SDDA area increase: 26.16%
  SDDA increase: 5.03 mm
P. acnes NCTC 737 [2]; quinone + CSPH
  SL SDDA area increase: 3.75%
  SL SDDA increase: 0.92 mm
  SL SDDA with CSPH: 50.46 (±2.15) mm
  SDDA area increase: 26.42%
  SDDA increase: 5.23 mm

## Cc1cc(O)ccc1O [2-methyl-p-hydroquinone]
P. acnes NCTC 737 [1]
  DDA + salt & lipid: 35.18 (±4.06) mm
S. aureus ATCC 29213 [3]
  DDA + salt & serum: 26.91 (±0.00) mm
P. acnes NCTC 737 [2]; quinone + CSL
  SL SDDA area increase: 35.49%
  SL SDDA increase: 6.98 mm
  SL SDDA with CSL: 49.54 (±0.81) mm
  SDDA area increase: 24.46%
  SDDA increase: 4.72 mm
P. acnes NCTC 737 [2]; quinone + CSPH
  SL SDDA area increase: 17.67%
  SL SDDA increase: 4.20 mm
  SL SDDA with CSPH: 53.74 (±1.75) mm
  SDDA area increase: 24.24%
  SDDA increase: 4.82 mm
S. aureus ATCC 29213 [4]; quinone + CSL
  SS SDDA area increase: 90.18%
  SS SDDA increase: 10.20 mm
  SS SDDA with CSL: 37.11 (±1.11) mm
  SDDA area increase: 112.09%
  SDDA increase: 11.76 mm
S. aureus ATCC 29213 [4]; quinone + CSPH
  SS SDDA area increase: 74.72%
  SS SDDA increase: 8.66 mm
  SS SDDA with CSPH: 35.57 (±0.62) mm
  SDDA area increase: 140.93%
  SDDA increase: 14.23 mm
